Reference: US6017958A, “Method of treating malignant tumors with thyroxine analogues having no significant hormonal activity” (Octamer, Inc., priority 1997, dated 2000)
Structures can show the parent of a compound that is named as a salt.

Columns and labels:
HIV = details: parent 6-amino-1,2-benzopyrene; cited from earlier work
tumor = details: parent 6-amino-1,2-benzopyrene; cited from earlier work
pADPRT = details: parent 6-amino-1,2-benzopyrene; cited from earlier work
MDA-MB-231 cells = assay: Flow cytometry / M phase block; format: cell-based, human; details: colcemid 0.1 μg/ml, 4 hrs
Protocol: The MDA-MB-231 cell line was obtained from ATCC (Rockville, Md., USA) and cells were cultured in T-75 flasks at 37° C. in Minimum Essential Medium-alpha, supplemented with 10% FCS. In controls, not receiving DIME, 0.1 μg/ml colcemid was added to cultures for 4 hrs prior to the collection of metaphase-blocked cells and preparation of cell spreads. […] Cells (10^7) were isolated from T-75 trypsinization for 5 min with 0.025% trypsin, and sedimented by centrifugation, resuspended and kept in 10 ml of 75 mM KC1 at 37° C. for 10 min, resedimented, and fixed in 10 ml methanol-acetic acid, with four successive changes of methanol-acetic acid. An aliquot of the final cell suspension (100 μl) was dropped on ethanol-cleaned slides and air-dried.
Cells exposed to different treatments were grown to confluence, trypsinized, and washed with phosphate buffered saline (PBS). For nuclear analysis, cells were fixed in Vindelov Citrate cell buffer: sucrose 250 mM, trisodium citrate. 2H20 40 mM, DMSO 50 ml in 1000 ml solution, pH 7.6. Normal human lymphocytes obtained from blood were used as controls. Each cell sample and control was counted with a hemacytometer and the cell concentration was adjusted to 2×10^6 cells/ml. Two million cells from each cell line in a total volume of 2 ml were washed twice with fresh PBS, treated with 200 μg/ml RNAase at 37° C. for 30 min, and stained with 10 μg/ml propidium iodide for 45 min. Flow cytometric analysis was performed on a FACScan benchtop flow cytometer (Becton-Dickinson, San Jose, Calif., USA) equipped with an air-cooled argon laser tuned to 488 nm. Twenty thousand events were collected as six parameter list mode data for analysis and archival storage. Two light scatter parameters (forward and side), propidium iodide fluorescence measured at 575/26 nm and above 620 nm, and doublet discrimination by fluorescence pulse width and area were acquired at 1024 data channel resolution. Acquisition threshold was set on propidium iodide positive events above channel 100. Gating to exclude small debris, large clumps and cell doublets was done post acquisition.

[1] = system: mouse pituitary thyrotropic tumors / non-malignant mouse pituitary adenoma; details: cited from earlier work
[2] = system: iodine uptake into the thyroid; details: rat, in vivo; cited from earlier work
Rana pipiens tadpoles = details: tadpole metamorphosis; cited from earlier work
Earl's L cells = details: Kirshan, 1968; cited from earlier work

Nc1ccc2oc(=O)ccc2c1I [5-iodo-6-amino-1,2-benzopyrone]
antiHIV activity versus parent compound (HIV): significantly augmented
antitumor action versus parent compound (tumor): significantly augmented
pADPRT inhibitory potency versus parent compound (pADPRT): significantly augmented

CN[C@H]1CCc2cc(OC)c(OC)c(OC)c2-c2ccc(OC)c(=O)cc21 [colcemid, reference compound]
cell cycle block in M phase, comparison of DIME and colcemid (MDA-MB-231 cells): indistinguishable with respect to the cell cycle block in M phase

N[C@@H](Cc1cc(I)c(Oc2cc(I)c(O)c(I)c2)c(I)c1)C(=O)O [thyroxine]
growth of mouse pituitary tumor [1]: depress growth of non-malignant mouse pituitary thyrotropic tumors
suppression of iodine uptake by the thyroid [2]: suppresses uptake of iodine by the thyroid
metamorphosis / cell differentiating activity (Rana pipiens tadpoles): induces cell differentiation

CC[C@]1(O)C[C@@H]2CN(CCc3c([nH]c4ccccc34)[C@@](C(=O)OC)(c3cc4c(cc3OC)N(C)[C@H]3[C@@](O)(C(=O)OC)[C@H](OC(C)=O)[C@]5(CC)C=CCN6CC[C@]43[C@@H]65)C2)C1 [vinblastine sulfate]
metaphase block / multinucleation (Earl's L cells): induces metaphase blocked multinucleated cells
